# Patent US9249468B2, “Methods and materials related to ovarian cancer” (The Ohio State University, priority 2011, dated 2016)
# “And” between values parts separate entries of the source, which are not always exact repeats. Equal entries are not always repeated. “Also recorded” adds a separate entry of the source.
# Key:
# [1] = system: HUVEC cells; experiment: Co-culture of HUVEC with miR over-expressing ovarian cancer cells: miR transfer; format: cell-based
# Procedure: (§1) Total RNA was isolated with Trizol (Invitrogen) from cells and with High Pure miRNA Isolation Kit (Roche) in accordance with manufacturer's instructions for liquid samples. Mature miRs were assessed by the single-tube TaqMan MicroRNA Assay. miR expression was normalized in cells to RNU44 and RNU48. All retrotranscriptase (RT) reactions, including no-template controls and RT minus controls, were run in a GeneAmp PCR 9600 Thermocycler (Applied Biosystems).
# (§2) Each sample was tested in triplicate unless otherwise specified. MicroRNAs from medium samples were isolated. After DNase treatment (Ambion), RNA concentrations were determined with a NanoDrop (Thermo Scientific). In serum samples were normalized to U6snRNA (Applied Biosystems), as indicated. Since U6 is inconsistent, the expression levels of target miRNAs were directly normalized to total RNA (the inventors tested before the absence of miR-296-5p and miR-484 in not conditioned medium).
# [2] = system: VEGFR2; experiment: VEGFR2 expression in HUVEC co-cultured with miR over-expressing ovarian cancer cells; format: cell-based; conditions: HUVEC co-cultured 24 hours with miR over-expressing cells vs control
# [3] = system: HGS; experiment: Luciferase miRNA target reporter assay and western blot; format: cell-based, human; conditions: luciferase and western blot analyses
# Procedure: (§3) For overexpression of miR-296 and miR-484, 100 nM of pre-miR-296, pre-miR-484 and pre-negative control-2 (Ambion) was transfected into HEK293 and HUVE cells using Lipofectamine 2000 (Invitrogen). After 24 hr, cells were harvested and lysed in RIPA buffer containing protease inhibitor cocktail (Roche Diagnostic). Protein concentrations of total cell lysates were measured using a Bradford Protein Assay Dye Reagent Concentrate (Bio-Rad), and 35 μg of cell lysates was resolved on SDS-PAGE gels (Bio-Rad) and transferred to nitrocellulose followed by visualization with ECL detection reagents (Denville Scientific). The following primary antibodies were used: mouse monoclonal anti-Hgs (1:1000, Enzo Life Science), rabbit polyclonal anti-VEGF Receptor 2 (1:1000, Cell Signaling Technology), mouse monoclonal anti-VEGF-B (1:200, Santa Cruz Biotechnology), mouse monoclonal anti-a-Tubulin (1:2000, Sigma).
# (§4) The 3′ UTR of the human HGS, and VEGFB genes were PCR amplified using the following primers:
# (§5) and inserted into pGL3 control vector (Promega) by using Xba1 site immediately downstream from the stop codon of firefly luciferase, giving rise to the p3′UTR-HGS, and p3′UTR-VEGFB plasmids. These constructs were used to generate the p3′-UTRmut-HGS primers: […]
# [4] = system: SKOV-3 cells; experiment: In vitro sensitivity to CBDCA and Tax of miR-overexpressing cells (MTS assay); format: cell-based; conditions: overexpression of the miR in SK-OV3 cells; MTS assay 4 days later
# Procedure: (§6) After drugs removal, cells were washed in PBS and incubated in the presence of serum for additionally 4 days. Cells viability was assessed using MTS assay (SIGMA) following manufacturer instructions. The reported IC50 values represent the mean of at least 3 independent experiments. For the evaluation of miR-484 effects on in vitro drug sensitivity parental, scramble and miR-484 expressing cells were plated in 96 wells plates (1000 cells/well) and treated with the indicated doses of CBDCA and TAX. Viability was evaluated after 4 days as described above.
# [5] = system: MDAH-2774 cells; experiment: as above; format: cell-based; conditions: overexpression of the miR in MDAH-2274 cells; MTS assay 4 days later
# Procedure: as §6
# [6] = system: ovarian cancer derived cell lines; experiment: miR expression in stably transfected ovarian cancer cell lines and their conditioned medium (real time PCR); format: cell-based; conditions: for miR in the CM of stably transfected cells: conditioned medium; for increase of miR expression over controls after stable transfection: miR-EGFP stable transfection in ovarian cancer cells
# Procedure: as §1, §2
# Lentiviruses expressing miR-484 were produced in 293FT cell lines (Invitrogen), by calcium phosphate transfection. To this purpose, the System Biosciences (SBI, USA) miR Precursor Constructs were used, containing dual expression of the specific miR and the copGFP fluorescent marker, for simple identification and monitoring of cells positive for transfection and transduction. Conditioned media containing viruses was harvested 72 hours after transfection, and used to transduce epithelial ovarian cancer cell lines (EOC). In particular, SKOV-3 and MDAH-2774 were transduced with viruses expressing either GFP alone (called hereafter empty vector) or GFP and precursor of miR-484, and then monitored for their fluorescence expression.
# [7] = system: HUVEC cells; experiment: Tube formation assay on HUVEC cells with conditioned media from miR-484 expressing ovarian carcinoma cells; format: cell-based; conditions: CM from MDAH-2774 or SK-OV3 overexpressing miR-484
# Procedure: Wells from a 48-well plate were filled with […] of matrigel (BD, non growth factor reduced 8-10 ug/ul) and let solidify at 37° C. for 1 hour. HUVEC cells (ATCC, 1×10^5) resuspended in […] of medium were then layered onto the matrigel layer and monitored over the time for the formation of tube-like structures. Time-lapse video microscopy (Leica) was used to create a movie of this process, collecting images every 5 minutes for up to 20 hours. Media used to resuspend endothelial cells were 1—complete medium for endothelial cells, used as positive control, 2—Serum reduced medium (2%), used as negative control, 3—conditioned medium (plus 2% serum) from […] or MDAH-2774 transduced with scrambled-miR or miR-484.
# [8] = system: VEGFB; experiment: Western blot for VEGFB in cell lines stably transduced with miR-484; format: cell-based; conditions: MDAH-2774 or SKOV-3 stably transduced with miR-484 vs scr-vector; western blot (data not shown)
# [9] = system: MDAH-2774 cells; experiment: In vivo growth and susceptibility to Carboplatin+Taxol of xenografts expressing miR-484 (caliper); design: species or system nude mice
# Procedure: (§7) Two approaches were used to evaluate the effects of miR-484 expression on in vivo chemosensitivity: 1) MDAH-2774 cells scrambled-miR (right flank) or miR-484 (left flank) and SKOV-3 scrambled-miR (right flank) or miR-484 (left flank) were injected and treated with intraperitoneal administration of Carboplatin (15 mg/kg) plus Taxol (5 mg/kg) twice a week, for 3 weeks. Tumor growth was follow by caliper measurement and/or by GFP visualization using the Ivis Lumina, Caliper Lifesciences. 2) Direct intratumoral delivery of lentiviruses expressing scrambled-miR (right flank) or miR484 (left flank) associated with carboplatin (15 mg/kg) plus taxol (5 mg/kg) intraperitoneal treatment.
# Athymic female nude mice (8/group) were subcutaneously injected on both dorsal flanks with 100 ul of PBS containing 1.5×10^6 MDAH-2774 cells scrambled-miR (right flank) or miR-484 (left flank).
# (§8) Same was carried out with SKOV-3, except that 2.2×10^6 cells have been injected. When tumor masses became visible treatment with CBDCA (15 mg/kg) and Tax (5 mg/kg) was started. Drugs were delivered diluted in 200 ul of PBS and intraperitoneally injected twice a week, for 4 weeks. Tumor masses were measured with a caliper twice a week, for 4 weeks. Moreover, exploiting the expression of GFP fluorescent marker by the ovarian cancer cells utilized, mice have been anesthetized and tumor masses imaged by the Ivis Lumina, Caliper Lifesciences, once a week, for 4 weeks. Mice were then sacrificed and tumor masses excised and included in OCT for further analyses.
# [10] = system: VEGFB; experiment: Luciferase miRNA target reporter assay and western blot; format: cell-based, human; conditions: luciferase and western blot analyses
# Procedure: as §3, §4, §5
# [11] = system: MDAH-2774 cells; experiment: Intratumoral delivery of lentivirus expressing miR-484 with CBDCA+Tax treatment; format: in vivo, nude mice; conditions: CBDCA+Tax biweekly for 3 weeks, tumor growth after 21 days
# Procedure: as §7
# [12] = system: SK-OV3 xenograft tumors; experiment: Vascular density (CD34, Chalkley eyepiece method) in xenograft tumors; format: in vivo, mice; conditions: SK-OV3 xenografts transduced with miR-484; 7 tumors
# Procedure: (§9) Tumor sections (2 μm thick) were cut and for formalin fixed paraffin embedded sample deparaffinization was achieved trough graded alcohols. Primary antibody against CD34 was applied following manufacturer's instruction. Vascular density (CD34+) was assessed using the Chalkley eyepiece method. Whole tumor sections were scanned at low magnification under a conference microscope by two observers. Three areas with the highest vascular density (vascular hot-spots) were identified. At high magnification (×400) a 25-point Chalkley-Eyepiece graticule was applied to each hot-spot and oriented to permit the maximum number of points to hit on or within blood vessels. The mean value of the three counts represents the vascular density of the tumor.
# [13] = system: MDAH-2774 xenograft tumors; experiment: as above; format: in vivo, mice; conditions: MDAH-2774 xenografts transduced with miR-484; 7 tumors
# Procedure: as §9
# [14] = system: SKOV-3 cells; experiment: In vivo growth and susceptibility to Carboplatin+Taxol of xenografts expressing miR-484 (EGFP imaging); design: species or system nude mice; conditions: SK-OV3 cells expressing miR-484, EGFP fluorescence imaging
# Procedure: as §7, §8
# [15] = system: VEGFR2; experiment: Luciferase and western blot after miR transfection in HUVEC cells; format: cell-based; conditions: luciferase and western blot analyses
# Procedure: as §3
# [16] = CBDCA and Tax treatment, 7 mice, miR-484 expressing tumors
substance,measurement,setting,value
"miR-296: microRNA miR-296 (SEQ ID NO: 9), over-expressed via pre-miR-296 transfection or stable miR-296-EGFP transfection (AGGGCCCCCCCUCAAUCCUGU; listed as RNA, chemistry not given here; listed as Homo sapiens)",time within which secreted miR enters HUVEC cells,[1],≤ 24 h
same,expression of VEGFR2 on endothelial cells,[2],significantly increase
same,endogenous levels of HGS,[3],modulated
same,in vitro sensitivity to CBDCA and Tax,[4],did not significantly affect
same,in vitro sensitivity to CBDCA and Tax,[5],did not significantly affect
same,miR in the CM of stably transfected cells,[6],found
same,increase of miR expression over controls after stable transfection,[6],≥ 2 fold
"miR-484: microRNA hsa-miR-484 (SEQ ID NO: 11), over-expressed via lentiviral miR precursor construct or pre-miR-484 transfection (UCAGGCUCAGUCCCCUCCCGAU; listed as RNA, chemistry not fully specified; listed as Homo sapiens)",formation of tube like structures by HUVEC,[7]; 6 hours on 3D matrigel,impaired
same,formation of tube like structures by HUVEC,[7]; 20 hrs,abolished; also recorded: reduces the ability of HUVEC to properly form and maintain tube-like structures
same,time within which secreted miR enters HUVEC cells,[1],≤ 24 h
same,VEGFB expression,[8],down-regulated
same,mice in which tumor volume formed by miR-expressing cells was larger than control EGFP-expressing cells,"[9]; 15 days after subcutaneous inoculation, before treatment",6/8
same,increase of tumor size with respect to day 0 at the end of the treatment,[9]; [16],1.3 fold
same,range of tumor size increase with respect to day 0,[9]; [16],0.8-1.8 fold
same,expression of VEGFR2 on endothelial cells,[2],significantly decrease
same,endogenous levels of VEGFB,[10],modulated
same,cases in which drug sensitivity increased,[11],6/6
same,mean microvessel density,[12],9±5.5 and 9
same,range of microvessel density,[12],1-18
same,mean microvessel density,[13],10±6.2 and 10
same,range of microvessel density,[13],4-22
same,in vitro sensitivity to CBDCA and Tax,[4],did not significantly affect
same,in vitro sensitivity to CBDCA and Tax,[5],did not significantly affect
same,sensitivity to treatment,[14]; CBDCA+Tax,significantly increased
same,growth of the primary tumor,[14],did not affect
same,endogenous levels of VEGFR2,[15],modulated
same,miR in the CM of stably transfected cells,[6],increased
same,increase of miR expression over controls after stable transfection,[6],≥ 2 fold
